Source: patent US9200016B2, “Substituted 6, 7-dialkoxy-3-isoquinoline derivatives as inhibitors of phosphodiesterase 10 (PDE 10A)” (Allergan, Inc., priority 2013, dated 2015)
Structures can show the parent of a compound that is named as a salt.

What follows are compounds tested against PDE10A (Homo sapiens, UniProt Q9Y233) (assay: Diaxonhit phosphodiesterase assay (TR-FRET, LANCE cAMP kit), PDE10A).
Assay type: biochemical
Description: (§1) Diaxonhit Phosphodiesterase Assay (PDE10A and PDE4D3)
The PDE assay is based on the homogenous time-resolved fluorescence resonance energy transfer (TR-FRET) technology (LANCE® from Perkin Elmer). […] When there is PDE activity, resulting in the degradation of the cyclic nucleotide, the complex is not formed and a decrease in signal is observed.
The phosphodiesterase assay was developed using the LANCE® cAMP kit (PerkinElmer). The assay buffer contained HBSS with 5 mM HEPES, 0.1% BSA, and 1.5 mM MgCl2, pH 7.4. […] Chemical compounds were dissolved in DMSO (final concentration 2% (v/v)).
(§2) In a 384-well plate, 2 μL of the inhibitor and 3 μL PDE were added to the well, followed by the addition of 5 μl substrate biotinylated cAMP (1:5). After 60 min incubation at room temperature, 10 μL of assay detection mixture was added to the assay plate. After 1 h at room temperature, the signal was measured on EnVision™ (Perkin Elmer).

Sequence of PDE10A (Q9Y233 whole entry, looked up): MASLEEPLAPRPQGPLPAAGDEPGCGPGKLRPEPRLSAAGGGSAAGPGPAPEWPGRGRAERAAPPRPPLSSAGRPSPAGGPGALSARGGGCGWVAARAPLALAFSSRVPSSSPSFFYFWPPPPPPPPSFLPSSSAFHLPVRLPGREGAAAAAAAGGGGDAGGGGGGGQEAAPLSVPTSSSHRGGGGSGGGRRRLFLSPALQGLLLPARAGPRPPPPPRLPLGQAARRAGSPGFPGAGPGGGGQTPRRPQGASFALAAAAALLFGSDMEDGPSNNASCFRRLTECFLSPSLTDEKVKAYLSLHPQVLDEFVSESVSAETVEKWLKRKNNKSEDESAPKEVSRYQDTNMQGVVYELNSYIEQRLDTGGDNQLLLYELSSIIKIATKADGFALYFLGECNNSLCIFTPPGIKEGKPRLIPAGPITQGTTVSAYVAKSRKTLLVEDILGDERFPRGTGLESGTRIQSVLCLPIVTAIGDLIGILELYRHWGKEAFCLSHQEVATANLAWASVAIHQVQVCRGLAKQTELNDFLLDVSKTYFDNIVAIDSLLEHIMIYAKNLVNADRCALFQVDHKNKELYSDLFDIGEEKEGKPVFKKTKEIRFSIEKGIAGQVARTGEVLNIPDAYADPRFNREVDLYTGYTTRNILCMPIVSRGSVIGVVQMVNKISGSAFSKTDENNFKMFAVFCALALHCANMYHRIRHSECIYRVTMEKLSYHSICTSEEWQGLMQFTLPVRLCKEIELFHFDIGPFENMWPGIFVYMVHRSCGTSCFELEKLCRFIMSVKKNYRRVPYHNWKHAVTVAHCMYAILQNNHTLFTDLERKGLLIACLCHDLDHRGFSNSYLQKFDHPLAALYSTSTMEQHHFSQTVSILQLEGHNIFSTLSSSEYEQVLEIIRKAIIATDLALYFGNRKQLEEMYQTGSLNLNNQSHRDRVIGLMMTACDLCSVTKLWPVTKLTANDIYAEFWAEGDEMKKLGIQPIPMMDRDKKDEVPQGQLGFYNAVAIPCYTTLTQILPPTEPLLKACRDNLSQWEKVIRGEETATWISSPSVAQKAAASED

SMILES | IC50
COc1cc2cncc(Cc3cnc4ccccc4c3)c2cc1O [Compound 29, 7-methoxy-4-(quinolin-3-ylmethyl)isoquinolin-6-ol dihydrochloride] | > 10000 nM
COc1cc2c(Cc3cnc4ccccc4c3)cncc2cc1O [Compound 30, 6-methoxy-4-(quinolin-3-ylmethyl)isoquinolin-7-ol dihydrochloride] | > 10000 nM
COc1cc2c(Cc3cnc4ccccc4c3)cnc(C3CCCCC3)c2cc1OC [Compound 71, 3-((1-cyclohexyl-6,7-dimethoxyisoquinolin-4-yl)methyl)quinoline dihydrochloride] | > 10000 nM

These compounds were tested against PDE4D3 (Homo sapiens (Human), UniProt Q08499) (assay: Diaxonhit phosphodiesterase assay (TR-FRET, LANCE cAMP kit), PDE4D3).
Sequence of PDE4D3 (Q08499 other isoform, or with tags, fused parts or gaps): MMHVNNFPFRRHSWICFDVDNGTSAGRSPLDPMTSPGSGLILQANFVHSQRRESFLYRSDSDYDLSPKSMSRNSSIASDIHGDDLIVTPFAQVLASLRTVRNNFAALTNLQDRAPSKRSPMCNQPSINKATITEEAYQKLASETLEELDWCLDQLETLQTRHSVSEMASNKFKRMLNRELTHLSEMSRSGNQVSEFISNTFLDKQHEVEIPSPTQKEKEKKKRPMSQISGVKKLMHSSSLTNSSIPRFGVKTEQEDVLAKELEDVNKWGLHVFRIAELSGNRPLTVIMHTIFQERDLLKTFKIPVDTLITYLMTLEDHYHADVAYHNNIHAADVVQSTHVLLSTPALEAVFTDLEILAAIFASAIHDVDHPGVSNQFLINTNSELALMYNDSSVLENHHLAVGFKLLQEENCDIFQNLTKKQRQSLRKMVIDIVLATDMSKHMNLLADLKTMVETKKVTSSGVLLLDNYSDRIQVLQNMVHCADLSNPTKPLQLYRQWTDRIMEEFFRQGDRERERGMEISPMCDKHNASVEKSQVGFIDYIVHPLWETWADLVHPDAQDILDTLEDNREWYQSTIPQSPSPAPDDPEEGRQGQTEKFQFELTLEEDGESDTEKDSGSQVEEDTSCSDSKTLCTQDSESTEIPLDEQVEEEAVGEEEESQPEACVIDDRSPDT
Assay type: biochemical
Source text: as §1
The PDE assay is based on the homogenous time-resolved fluorescence resonance energy transfer (TR-FRET) technology (LANCE® from Perkin Elmer). This competition based assay is formatted using a cAMP specific antibody labeled with the dye, Alexa Fluor® 647, biotin-cAMP and streptavidin labeled with Europium (Eu-SA). As the complex of Eu-SA/biotin-cAMP/Alexa Fluor 647 labeled antibody is formed, an increase in signal is generated. When there is PDE activity, resulting in the degradation of the cyclic nucleotide, the complex is not formed and a decrease in signal is observed.
The phosphodiesterase assay was developed using the LANCE® cAMP kit (PerkinElmer). The assay buffer contained HBSS with 5 mM HEPES, 0.1% BSA, and 1.5 mM MgCl2, pH 7.4. PDE10A (BPS Bioscience) was used at 200 pg/well (with a specific activity of 3200 pmole/min/μg with assay conditions: 10 mM Tris-HCl, pH 7.4, 10 mM MgCl2, 1 mM MnCl2, 200 μM cAMP, 2.5 kU 5′ nucleotidase, 37° C., 20 min) and PDE4D3 (BPS Bioscience) was used at 100 pg/well (with a specific activity of 32713 pmole/min/μg with assay conditions: 10 mM Tris-HCl, pH 7.4, 10 mM MgCl2, 1 mM MnCl2, 200 μM cAMP, 2.5 kU 5′ nucleotidase, 37° C., 20 min). The Biotin-cAMP tracer, supplied in 10 mmol/L Tris-HCl buffered (pH 8.0) salt solution with 1 mmol/L ethylenediaminetetraacetic acid (EDTA), 0.1% bovine serum albumin (BSA), and 0.05% sodium azide, is used at a dilution of 1/375. The assay detection mixture contained the LANCE Eu-W8044 labeled streptavidin 1/2250 (supplied in 50 mmol/L Tris-HCl buffered (pH 7.8) salt solution with 0.9% sodium chloride (NaCl), 0.1% BSA, and 0.05% sodium azide) and the Alexa Fluor® 647-anti cAMP antibody 1/200 (supplied in 50 mmol/L Tris-HCl buffered (pH 7.8) salt solution with 0.9% NaCl, 0.1% BSA, and 0.05% sodium azide). Chemical compounds were dissolved in DMSO (final concentration 2% (v/v)).
as §2

SMILES | IC50
CCc1ncc(Cc2ccc3cccc(O)c3n2)c2cc(OC)c(OC)cc12 [Compound 83, 2-((1-ethyl-6,7-dimethoxyisoquinolin-4-yl)methyl)quinolin-8-ol] | 439 nM
CCc1ncc(Cc2ccc3cccc(NC(=O)C(N)=O)c3n2)c2cc(OC)c(OC)cc12 [Compound 93, N^1-(2-((1-ethyl-6,7-dimethoxyisoquinolin-4-yl)methyl)quinolin-8-yl)oxalamide] | 398 nM
CCCc1ncc(Cc2cnc3ccc(O)c(C(F)(F)F)c3c2)c2cc(OC)c(OC)cc12 [Compound 162, 3-((6,7-dimethoxy-1-propylisoquinolin-4-yl)methyl)-5-(trifluoromethyl)quinolin-6-ol] | 232 nM
COCc1ncc(Cc2cnc3ccc(O)c(C(F)(F)F)c3c2)c2cc(OC)c(OC)cc12 [Compound 169, 3-((6,7-dimethoxy-1-(methoxymethyl)isoquinolin-4-yl)methyl)-5-(trifluoromethyl)quinolin-6-ol] | 194 nM
